Target: T1, GPR158 Y269A mutant (Homo sapiens, UniProt Q5T848, Y269A)
T1 sequence (Q5T848 24-1215 Y269A): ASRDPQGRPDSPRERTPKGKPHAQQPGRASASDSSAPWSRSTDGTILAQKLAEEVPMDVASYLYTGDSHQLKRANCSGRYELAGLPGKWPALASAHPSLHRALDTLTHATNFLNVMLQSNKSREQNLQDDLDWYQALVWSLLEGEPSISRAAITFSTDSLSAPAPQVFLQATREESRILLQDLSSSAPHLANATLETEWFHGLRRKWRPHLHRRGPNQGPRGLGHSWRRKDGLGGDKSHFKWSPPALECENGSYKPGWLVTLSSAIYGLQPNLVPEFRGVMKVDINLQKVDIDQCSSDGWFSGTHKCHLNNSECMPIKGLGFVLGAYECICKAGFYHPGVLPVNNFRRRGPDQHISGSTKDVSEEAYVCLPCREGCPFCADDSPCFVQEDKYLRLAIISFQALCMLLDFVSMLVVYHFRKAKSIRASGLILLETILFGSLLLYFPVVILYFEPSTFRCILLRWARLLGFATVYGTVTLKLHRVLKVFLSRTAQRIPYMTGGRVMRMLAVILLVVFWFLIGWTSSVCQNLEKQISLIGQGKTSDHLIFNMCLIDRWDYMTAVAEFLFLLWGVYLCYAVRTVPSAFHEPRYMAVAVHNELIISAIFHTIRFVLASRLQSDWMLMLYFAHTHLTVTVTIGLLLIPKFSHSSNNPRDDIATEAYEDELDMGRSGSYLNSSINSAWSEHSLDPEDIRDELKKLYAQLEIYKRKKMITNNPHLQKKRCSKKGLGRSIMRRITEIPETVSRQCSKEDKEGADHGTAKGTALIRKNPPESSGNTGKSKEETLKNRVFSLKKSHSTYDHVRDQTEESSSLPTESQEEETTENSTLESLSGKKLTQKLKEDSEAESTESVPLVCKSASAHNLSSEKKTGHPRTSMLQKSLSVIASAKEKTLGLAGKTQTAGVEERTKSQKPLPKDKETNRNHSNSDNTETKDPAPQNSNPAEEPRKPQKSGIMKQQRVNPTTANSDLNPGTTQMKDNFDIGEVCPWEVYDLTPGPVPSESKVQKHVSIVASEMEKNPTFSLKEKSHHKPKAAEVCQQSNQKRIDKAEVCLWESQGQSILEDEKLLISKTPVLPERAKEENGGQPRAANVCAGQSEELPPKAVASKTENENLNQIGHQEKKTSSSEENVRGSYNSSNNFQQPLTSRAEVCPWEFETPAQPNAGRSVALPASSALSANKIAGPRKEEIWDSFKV
Test: Radioligand binding assay on GPR158 mutant Y269A
Source text: FIGS. 11A-11G. Probing Cache domain of GPR158 as a ligand binding site A) Computational docking of glycine into putative ligand binding pocket on GPR158 Cache domain. Glycine and directly interacting residues are shown as sticks. Hydrogen bonds and van der Waals interactions are shown as dotted lines. B) Diagram showing interactions in the docked model of glycine against GPR158 Cache domain. Hydrogen bonds are shown as dashed lines, van der Waals interactions are shown as intersecting semicircles, and the secondary structural context of Ser266 and Tyr269 is shown as an arc. Dagger indicates a residue implicated in glycine binding in 11A. C) Radioligand binding assay of ^3H-glycine in cells expressing GPR158 mutants. Data shown mean±s.e.m. of 3 independent experiments, *p<0.05, ns=p>0.05 one-way ANOVA. D) Functional evaluation of GPR158 mutants in GAP BRET assay. Error bars are mean±s.e.m. of 3 independent experiments in triplicate. *p<0.05, **p<0.01, ***p<0.001, ****p<0.0001, ns=p>0.05, two-way ANOVA Columns with no fill (Ctrl), columns with angled-line fill (Glycine) E) Quantification of glycine inhibitory effect on kGAP normalized to the effect seen with WT receptor. […]
Whole cell binding was performed using cDNA of GPR158-venus or each GPR158-venus mutant or empty pcDNA3.1+ for ctrl cells. […] Finally radioactivity was measured using the liquid scintillation analyzer Tri-Carb 4910 TR.

SMILES: NCC(=O)O [^3H-glycine, [^3H]-glycine]
- [^3H]-glycine binding: near complete loss
